Article PMC6983002, “Identification and Biological Evaluation of CK2 Allosteric Fragments through Structure-Based Virtual Screening” (Molecules, 2020)
Read-outs that look alike come from different tables or passages of the source.

Tests used:
CK2α = CK2α (Homo sapiens, UniProt P68400); assay: ADP-Glo kinase assay, CK2 inhibition; type: biochemical; details: for inhibition at 256 µM: 256 μM compound; for inhibition at 1024 µM: 1024 μM compound, read-out: inhibition rate at 1024 μM
Experimental: In vitro CK2 kinase inhibition assay were carried out for the six compounds using ADP-Glo^TM kinase assay. […] As indicated in Table 1 and Figure 5a, these compounds presented the inhibitory effect on CK2α activity to different extent. At the concentration of 16 μM, compound 3 inhibited nearly 50% of CK2α activity. However, at the same concentration, other compounds had only 20% inhibitory activity. Furthermore, except compound 2 and 6, the inhibition rates of these compounds were about 70% and 30% at 256 μM, respectively, with the dose-dependent manner. The ADP-Glo^TM Kinase Assay (Promega, Madison, WI, USA) was used to test the CK2 inhibition effects of these compounds [30, 31]. As indicated by the relevant studies, competitive and noncompetitive inhibitors show the increased and similar IC50 values with increasing concentrations of ATP, respectively. Therefore, we were able to distinguish between ATP competitive and noncompetitive inhibitors of CK2 by exploring whether the IC50 value of inhibitors will change or not at 10 and 100 μM ATP. The kinase reaction was performed in 25 μL mixture containing 10 ng casein kinase 2α, 0.1 µg/μL casein protein, 10 µM or 100 µM ATP, 1× reaction buffer and serially diluted fragments (or DMSO for control). After 60 min incubation at room temperature, 25 μL of ADP-Glo^TM Reagent was added to terminate the kinase reaction and deplete the remaining ATP. Then 50 μL Kinase Detection Reagent was added to convert ADP to ATP within 30 min, and allow the newly synthesized ATP to produce a luminescence signal using luciferase/luciferin reaction, which was recorded by the luminescence panel of Microplate Reader (Enspire2300-001A, Perkin Elmer, Waltham, MA, USA).The luminescent signal is proportional to the ADP concentration produced and correlated with the kinase activity.

A549 cancer cells = assay: CCK-8 cell proliferation assay, A549; type: cell-based; details: Homo sapiens, A549, 48 h treatment, read-out: IC50, inhibition of A549 cell proliferation
Experimental: With the aim of investigating the anti-cancer cell proliferative activity of the CK2 inhibitors, compound 3 and 4 was tested against human cancer cell lines based on Cell Counting Kit-8 (CCK-8) assay. […] We presumed that the functional uracil group of two compounds, which is also presented in the anti-cancer hits 5-fluorouracil, is essential and indispensable for anti-cancer activity.
Cell Counting Kit-8 (CCK-8 Dojindo Laboratories, Kyushu, Japan) assays was used to assess the cytotoxic activities of compound 3 and 4. A549 and HeLa cancer cells were seeded in 96-well flat-bottom culture plate at 2 × 10^4 cells/well and then cultured in an incubator of 5% CO2 and 37 °C for 24 h. After cells adherence, the cells were treated with targeted compounds at various concentrations for 48 h. Blank wells (containing culture medium only) and negative wells (untreated cells) served as controls. Following, 10 μL CCK-8 solutions was add to each well and incubated for 2 h at 37 °C, the absorbance was measured at 450 nm by using a microplate reader (Enspire 2300-001A, Perkin Elmer, Waltham, MA, USA).

[1] = concentration-response, 10 μM ATP where stated, read-out: IC50 against CK2α

Chain of CK2α (P68400 whole entry): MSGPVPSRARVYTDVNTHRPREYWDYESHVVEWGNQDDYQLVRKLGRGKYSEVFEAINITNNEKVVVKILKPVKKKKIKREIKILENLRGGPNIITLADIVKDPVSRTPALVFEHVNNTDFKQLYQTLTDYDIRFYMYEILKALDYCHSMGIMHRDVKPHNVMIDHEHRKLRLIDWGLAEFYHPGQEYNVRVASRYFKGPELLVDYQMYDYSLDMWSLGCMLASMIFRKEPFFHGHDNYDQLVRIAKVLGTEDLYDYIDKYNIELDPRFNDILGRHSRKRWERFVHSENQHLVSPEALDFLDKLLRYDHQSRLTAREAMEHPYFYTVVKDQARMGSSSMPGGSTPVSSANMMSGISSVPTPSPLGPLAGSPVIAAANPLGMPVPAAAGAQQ

SMILES	inhibition at 16 µM (CK2α; 16 μM compound) [%]	inhibition at 256 µM (CK2α) [%]	inhibition at 1024 µM (CK2α) [%]	IC50 (A549 cancer cells) [µM]	IC50 (CK2α; [1]) [µM]	%Inhibition at 16 μM (CK2α; 16 μM compound, 16 µM) [%]	inhibition at 64 µM (CK2α; 64 μM compound) [%]	IC50 (CK2α; 100 μM ATP, read-out: IC50 against CK2α in the presence of 100 μM ATP) [µM]	mode of inhibition with respect to ATP (CK2α; IC50 compared at 10 μM and 100 μM ATP)
COc1ccc(C(=O)Nc2ccc(C(N)=O)cc2)cc1Br [Compound 1]	14	27	–	–	–	–	–	–	–
Cc1ccc(C(=O)Nc2c[nH]c(=O)[nH]c2=O)cc1C [Compound 3]	~50	72	–	23.1	13	52	> 50	10.2	non-ATP competitive
Nc1cc(=O)nc(SCc2ccccc2Cl)[nH]1 [Compound 6]	12	18	< 50	–	–	–	–	–	–

Now from value to compound:

inhibition at 16 µM (CK2α; 16 μM compound) [%]	inhibition at 256 µM (CK2α) [%]	inhibition at 1024 µM (CK2α) [%]	IC50 (A549 cancer cells) [µM]	IC50 (CK2α; [1]) [µM]	%Inhibition at 16 μM (CK2α; 16 μM compound, 16 µM) [%]	inhibition at 64 µM (CK2α; 64 μM compound) [%]	IC50 (CK2α; 100 μM ATP, read-out: IC50 against CK2α in the presence of 100 μM ATP) [µM]	mode of inhibition with respect to ATP (CK2α; IC50 compared at 10 μM and 100 μM ATP)	SMILES
16	29	< 50	–	–	–	–	–	–	Cc1c(Cl)cccc1NC(=O)CC1NCCNC1=O (stereo not shown) [Compound 5]
16	19	–	–	–	–	–	–	–	COc1ccc(C(=O)Nc2ccc3[nH]c(=O)[nH]c3c2)cc1Br [Compound 2]
22	40	–	8.8	≤ 1020	–	–	–	–	O=C(Cc1cccc2ccccc12)Nc1c[nH]c(=O)[nH]c1=O [Compound 4]
